How the values were obtained:
[1] = Particle size and polydispersity of LNP containing pro-drug (dynamic light scattering); assay type: physicochemical; design: Size of LNP: unit not given here; conditions: for Particle Diameter (nm) / Polydispersity index (PDI): LNP containing 10 mol % conjugate, primary PC-lipid DMPC
Procedure: (§1) LNPs were prepared by dissolving 1,2-Distearoyl-sn-glycero-3-phosphocholine (DSPC) or 1,2-dimyristoyl-sn-glycero-3-phosphocholine (DMPC), cholesterol and 1,2-Distearoyl-sn-glycero-3-phosphoethanolamine-Poly(ethylene glycol) (PEG-DSPE) in ethanol. DSPC, DMPC and PEG-DSPE were purchased from Avanti Polar Lipids (Alabaster, Ala.), and cholesterol was obtained from Sigma (St Louis, Mo.).
(§2) Drug-lipid-conjugates INT-D034, INT-D035, INT-D045, INT-D046, INT-D047, INT-D048, INT-D049, INT-D050, INT-D051, INT-D053, INT-D060, INT-D061, INT-D062, INT-D063, INT-D083, INT-D085, INT-D086, INT-D088 and INT-D089 (see FIG. 3 and Example 7 for structures) were dissolved in isopropanol or THF. LNP were prepared by rapidly mixing DSPC or DMPC, cholesterol, drug-lipid conjugate, and PEG-DSPE (in molar ratio of 49/40/10/1) with phosphate-buffered saline (PBS) using a cross-junction mixer. Formulations were dialyzed against PBS to remove residual ethanol. In formulation$ with more than 10 mol % drug-lipid conjugates, the amount of phospholipid or cholesterol was reduced accordingly.
(§3) The physiochemical properties of the LNPs prepared as described above were subsequently characterized. Particle size was determined by dynamic light scattering using a Malvern Zetasizer Nano ZS (Malvern, UK) following buffer exchange into phosphate-buffered saline. Number-weighted size and distribution date was used. Lipid concentrations were determined by measuring total cholesterol using the Cholesterol E enzymatic assay kit from Wako Chemicals USA (Richmond, Va.). The morphology of LNP formulations containing LD-DEX was analyzed by cryogenic-transmission electron microscopy (cryoTEM).

[2] = Encapsulation efficiency / incorporation of pro-drug in LNP; assay type: physicochemical; conditions: for % Entrapment: LNP formulations containing pro-drugs (10 mol %, FIG. 6A); for Encapsulation Efficiency (%): LNP containing 10 mol % conjugate, primary PC-lipid DMPC
Procedure: as §1, §2, §3

[3] = Dissociation of pro-drugs from LNP after incubation in human plasma (size exclusion chromatography, UPLC); assay type: in vitro ADME; conditions: 10 mol % in LNP, 2 hours, 37° C. (FIG. 6A)
Text: The release of ricinoleyl-dexamethasone conjugates from LNP was examined using an assay involving human plasma, which contains lipoproteins as a lipid sink for lipid exchanges to occur. The plasma lacked active esterases that may digest the ricinoleyl-dexamethasone conjugates, which would in turn prevent the detection and monitoring of intact conjugates.
LNP formulations containing 10-99 mol % INT-D034, INT-D035, INT-D045, INT-D046, INT-0047, INT-D048 or INT-D049, INT-D050, INT-D051, INT-D053, INT-D083, INT-D085, INT-D086 or INT-D089 (see FIG. 3 and Example 7 for structures) were subjected to incubation in human plasma for 0, 2 or 24 hours at 37° C. at 1.2 mM total lipid. Size exclusion chromatography was performed to separate LNP from lipoproteins (1.5×27 cm Sepharose […] size exclusion column). Thirty fractions of 2 mL were collected and three volumes of isopropanol/methanol (1:1 v/v) were added to each fraction.
Drug-lipid conjugates were quantified by ultra high pressure liquid chromatography (UPLC) using a Water® Acquity™ UPLC system equipped with a photodiode array detector (PDA); Empower™ data acquisition software version 2.0 was used (Waters, USA). […] The method was run over 6 minutes with a column temperature of 55° C. and the analyte was measured by monitoring the PDA detector at a wavelength of 239 nm.

CD4+ T cells = experiment: Mixed lymphocyte reaction (MLR) assay, BMDCs with allogeneic CD4+ T cells; assay type: cell-based, mice; conditions: LNP containing 10-99 mol % conjugate; BMDCs treated 48 hours, LPS 24 hours; 5:1 or 10:1 T-to-BMDC ratio; 3 days; flow cytometry
Procedure: Bone marrow derived dendritic cells (BMDCs) from C57Bl/6 male mice were first treated with LNP containing various mol % of the dexamethasone or calcitriol conjugates for 48 hours and then activated by incubation with LIPS for 24 hours. They were then harvested and mixed with CD4+ T cells isolated from Balb/cJ male mice (Jackson Laboratories) at 5:1 or 10:1 T-to-BMDC ratio.
Dexamethasone and calcitriol can tolerize antigen presenting cells (APCs). […] Bone marrow derived dendritic cells (BMDCs) from C57BI/6 male mice (Charles River) were first treated with LNP containing various mol % of dexamethasone or calcitriol conjugates for 48 hours and then activated by incubation with LPS for 24 hours. They were then harvested and mixed with CD4+ T cells isolated from Balb/cl male mice (Jackson Laboratories) at 5:1 or 10:1 T-to-BMDC ratio. The levels of T cells proliferation after 3 days were quantified using flow cytometry.

[4] = LNP formulations containing pro-drugs (10 mol %, FIG. 6A)
[5] = LNP, pro-drug concentration 10 %
[6] = LNP, pro-drug concentration 20 %
[7] = LNP, pro-drug concentration 60 %
[8] = LNP, pro-drug concentration 80 %
[9] = LNP, pro-drug concentration 99 %
[10] = LNP, pro-drug concentration 90 %

Molecule | PdI [1, 4] | Size of LNP [1, 4] | PdI [1, 5] | Size (nm) [1, 5] [nm] | PdI [1, 6] | Size (nm) [1, 6] [nm] | PdI [1, 7] | Size (nm) [1, 7] [nm] | PdI [1, 8] | Size (nm) [1, 8] [nm] | PdI [1, 9] | Size (nm) [1, 9] [nm] | % Entrapment [2] [%] | pro-drug remained in LNP [3] | Particle Diameter (nm) [1] [nm] | Polydispersity index (PDI) [1] | Encapsulation Efficiency (%) [2] [%] | allogeneic T-cell proliferation (CD4+ T cells) | PdI [1, 10] | Size (nm) [1, 10] [nm]
CCCCC/C=C\C/C=C\CCCCCCCC(=O)OC(CCCCCCCC)C(CCCCCCCC(=O)OCC(=O)[C@@]1(O)[C@H](C)C[C@H]2[C@@H]3CCC4=CC(=O)C=C[C@]4(C)[C@@]3(F)[C@@H](O)C[C@@]21C)OC(=O)CCCCCCC/C=C\C/C=C\CCCCC (stereo partly drawn) [INT-D086, 1-(2-((8S,9R,10S,11S,13S,14S,16R,17R)-9-Fluoro-11,17-dihydroxy-10,13,16-trimethyl-3-oxo-6,7,8,9,10,11,12,13,14,15,16,17-dodecahydro-3H-cyclopenta[a]phenanthren-17-yl)-2-oxoethoxy)-1-oxooctadecane-9,10-diyl (9Z,9′Z,12Z,12′4)-bis(octadeca-9,12-dienoate)] | 0.08 | 38 | 0.082 | 38 | 0.117 | 35 | 0.036 | 82 | 0.028 | 165 | 0.026 | 160 | 92 | over 90% | – | – | – | – | – | –
CCCCCC[C@H](C/C=C\CCCCCCCCOC(=O)CCC(=O)OCC(=O)[C@@]1(O)[C@H](C)C[C@H]2[C@@H]3CCC4=CC(=O)C=C[C@]4(C)[C@@]3(F)[C@@H](O)C[C@@]21C)OC(C)=O [INT-D047, (R,Z)-12-acetoxyoctadec-9-en-1-yl (2-((8S,9R,10S,11S,13S,14S,16R,17R)-9-fluoro-11,17-dihydroxy-10,13,16-trimethyl-3-oxo-6,7,8,9,10,11,12,13,14,15,16,17-dodecahydro-3H-cyclopenta[a]phenanthren-17-yl)-2-oxoethyl) succinate] | 0.06 | 70 | – | – | – | – | – | – | – | – | – | – | 100 | ~40% | 68 | 0.02 | 100 | – | – | –
(1R,3S,2)-3-hydroxy-5-(2-((1R,3aS,7aR,E)-1-((R)-6-hydroxy-6-methylheptan-2-yl)-7a-methyloctahydro-4H-inden-4-ylidene)ethylidene)-4-methylenecyclohexyl (R,Z)-12-acetoxyoctadec-9-enoate and (1S,5R,Z)-5-hydroxy-3-(2-((1R,3aS,7aR,E)-1-((R)-6-hydroxy-6-methylheptan-2-yl)-7a-methyloctahydro-4H-inden-4-ylidene)ethylidene)-2-methylenecyclohexyl(RA-12-acetoxyoctadec-9-enoate [INT-D053] | – | – | 0.081 | 54 | 0.052 | 56 | – | – | 0.029 | 106 | 0.018 | 98 | – | – | – | – | – | able to suppress allogeneic T-cell proliferation | – | –
CCCCC/C=C\C/C=C\CCCCCCCC(=O)O[C@@H](C/C=C\CCCCCCCCOC(=O)CCC(=O)OCC(=O)[C@@]1(O)[C@H](C)C[C@H]2[C@@H]3CCC4=CC(=O)C=C[C@]4(C)[C@@]3(F)[C@@H](O)C[C@@]21C)CCCCCC [INT-D045, 2-((8S,9R,10S,11S,13S,14S,16R,17R)-9-fluoro-11,17-dihydroxy-10,13,16-trimethyl-3-oxo-6,7,8,9,10,11,12,13,14,15,16,17-dodecahydro-3H-cyclopenta[a]phenanthren-17-yl)-2-oxoethyl ((R,Z)-12-(linoleoyloxy)octadec-9-en-1-yl) succinate] | 0.03 | 64 | 0.076 | 46 | 0.073 | 48 | – | – | 0.033 | 69 | 0.045 | 75 | 100 | – | 68 | 0.03 | 99 | able to suppress allogeneic T-cell proliferation | 0.054 | 74
CCCCCCCCCCCC(=O)O[C@@H](C/C=C\CCCCCCCCOC(=O)CCC(=O)OCC(=O)[C@@]1(O)[C@H](C)C[C@H]2[C@@H]3CCC4=CC(=O)C=C[C@]4(C)[C@@]3(F)[C@@H](O)C[C@@]21C)CCCCCC [INT-D046, (R,Z)-12-(dodecanoyloxy)octadec-9-en-1-yl (2-((8S,9R,10S,11S,13S,14S,16R,17R)-9-fluoro-11,17-dihydroxy-10,13,16-trimethyl-3-oxo-6,7,8,9,10,11,12,13,14,15,16,17-dodecahydro-3H-cyclopenta[a]phenanthren-17-yl)-2-oxoethyl) succinate] | 0.08 | 64 | – | – | – | – | – | – | – | – | – | – | 100 | – | 69 | 0.04 | 93 | – | – | –

— US20220226480A1, “LIPID CONJUGATE PREPARED FROM SCAFFOLD MOIETY” (Integrated Nanotherapeutics Inc., priority 2019, published 2022)
